Data reported in the METLIN SMRT retention time set (Domingo-Almenara et al. 2019).

Assay: gradient 5% acetonitrile 3 min, to 50% in 2 min, to 85% in 15 min, held 3 min, 100 µL/min
Settings: column: Zorbax Extend-C18 2.1 x 50 mm; eluents: water / acetonitrile, 0.1% formic acid
Method in brief: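 The mobile phases were water and acetonitrile, each with 0.1% formic acid, pumped at 100 μL/min through a Zorbax Extend-C18 column (2.1 × 50 mm, 1.8 μm). Pure standards were injected as mixtures of ~100 molecules and detected by a quadrupole time-of-flight mass spectrometer in positive and negative ionization mode. Retention time came from computationally picked adduct peaks, each inspected by hand.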

Structure (SMILES)	RP-LC retention time
CCOc1ccc(CCNC(=O)c2snc(C(=O)NCc3ccccc3)c2N)cc1OCC	1090 s
CCN1CCC(N(Cc2cccs2)C(=O)Nc2ccccc2C)CC1	646 s
COc1ccccc1N1CCN(c2ncc(S(=O)(=O)c3ccc(C)cc3)c(N)n2)CC1	955 s
O=C(NCCc1c[nH]c2ccccc12)C(=O)NCC(c1ccco1)N1CCOCC1 (stereo unspecified)	582 s
COc1cc(NC(=O)N2CC(C)Oc3ccccc32)cc(OC)c1OC (stereo unspecified)	862 s
COCCC1CCN(C(=O)CN(C)C(=O)c2cccn2C)CC1	670 s
CCCS(=O)(=O)N1CCO[C@@H](COC)[C@@H]1c1ccccc1	850 s
CCCc1cc(N2CCN(C(=O)c3ccn(CC)n3)CC2)nc2nnc(CC)n12	616 s
COc1ccc(NC(=O)N2C[C@@H](F)C[C@H]2C(=O)N2CCc3ccccc3C2)cc1F	797 s
CCN(CC)S(=O)(=O)c1ccc2c(c1)CC(C(=O)NCCN1CCCCCC1)N2C(C)=O (stereo unspecified)	631 s
Cc1ccc(C)c(N2CCN(c3ccnc(SCC(=O)NCCC4=CCCCC4)n3)CC2)c1	1090 s
Cc1ccn2cc(-c3ccc(NC(=O)c4ccccc4I)cc3)nc2n1	656 s
CN(CC1(C)CCOCC1)C(=O)c1ccc(C#N)cc1	716 s
O=C(NCc1cccnc1-c1ccc(F)cc1)c1cc(F)cc(F)c1	710 s
O=C(NCc1ccccc1)N1CC(Oc2cccc(-c3nc(-c4ccccc4)no3)c2)C1	1130 s
COc1ccccc1-c1nnc(-c2ccc(OC)c(S(=O)(=O)N3CCCCC3)c2)o1	937 s
CCCn1cc(CCNS(=O)(=O)c2ccc(C3CCCCC3)cc2)c2cccnc21	1210 s
CCC(=O)N1CCc2cc(C(=O)NCC3CCCO3)ccc21 (stereo unspecified)	642 s
Cc1nc([C@@H]2CN(C(=O)c3sc(C)nc3C)C[C@H]2C(N)=O)n[nH]1	550 s
CCc1nc(-c2csc(S(=O)(=O)N3CCCC(C(=O)NC4CCCCCCC4)C3)c2)no1 (stereo unspecified)	1150 s
Cc1cccc(CNC(=O)C2CCCN(c3ccc4cc(S(=O)(=O)N5CCCC5)ccc4n3)C2)c1 (stereo unspecified)	774 s

Structure (SMILES)	RP-LC retention time
COc1ccc(-c2noc(C3CCCN3C(=O)c3ccco3)n2)cc1OC (stereo unspecified)	780 s
CCCNC(=O)CCc1c(C)n(CC)c2nc(-c3ccccc3)nn2c1=O	697 s
COc1cccc(CNC(=O)c2ccc3c(c2)nc2n3CCN(C3CCCCC3)C2=O)c1	774 s
CCNC(=O)N1CCCCCC1CN1CCCC1 (stereo unspecified)	564 s
O=C(NCCCN1CCCC1=O)c1ccc2ncnc(N3CCCC3)c2c1	570 s
COc1ccc(C2c3[nH]c4ccccc4c3CCN2C(=O)Cc2cccs2)cc1 (stereo unspecified)	1110 s
Cc1ccc(-n2nc(CO)c(C(=O)NC3CCCC3)n2)cc1	1030 s
CCCN(C(=O)c1ccccc1)c1nc(-c2ccccc2)cs1	1310 s
COc1ccc(NC(=O)CN2C(=O)c3ccccc3C2=O)c2ccccc12	782 s
COC(=O)[C@@H]1Cc2c([nH]c3ccccc23)C(CCc2ccccc2)N1C(C)=O (stereo partly specified)	983 s
COCCCNC(=O)C1CCN(c2cnn(Cc3ccccc3)c(=O)c2)CC1	651 s
O=c1n(Cc2cccc(F)c2)nc2c(S(=O)(=O)N3CCCC3)cccn12	1050 s
Cc1nnc(N2CCCC(C(=O)NCc3ccccn3)C2)c2nn(-c3ccccc3)c(C)c12 (stereo unspecified)	566 s
COc1ccc(-c2nc3cnccn3c2Nc2ccc(F)cc2)cc1OC	768 s
CC1CCN(c2ncc3c(n2)CCC(C(=O)NCc2ccc(N4CCOCC4)cc2)C3)CC1 (stereo unspecified)	715 s
COc1ccc(-c2ccnc3nc(-c4cccs4)nn23)cc1	892 s
Cc1ccc(S(=O)(=O)NC2CCN(c3ccccc3)C2=O)cc1 (stereo unspecified)	876 s
CCOC(=O)c1c(S(=O)(=O)N2CCC(C(=O)Nc3ccc(C)c(C)c3)CC2)c(C)n(CC)c1C	975 s
Cc1ccn2c(NC(=O)c3ccc(Br)cc3)c(-c3ccccc3)nc2c1	709 s
O=C(Cn1ccc2ccn(CC3CC3)c2c1=O)N1CCOCC1	682 s
CCn1cc(C)c(C(=O)O)c1CC(=O)N1CCCCC1	694 s

Structure (SMILES)	RP-LC retention time
O=C(NCc1ccc2c(c1)OCO2)C1CCN(c2cc(N3CCCCC3)ncn2)CC1	715 s
O=C(c1nc(-c2cccs2)cs1)N1CCN(c2ccccc2)CC1	1130 s
Cc1noc(C2CN(C(=O)Nc3cc(F)ccc3F)CC23CCOCC3)n1 (stereo unspecified)	733 s
COCC(C)(O)CNC(=O)c1cccnc1SC (stereo unspecified)	577 s
CCCCNC(=O)C(C)n1nc(C)c2nn(-c3ccccc3)c(C)c2c1=O (stereo unspecified)	864 s
Cc1cc(C(=O)NC(C)C)nn1C	628 s
c1cc(-c2noc(COC3CCCN(Cc4ccoc4)C3)n2)ccn1 (stereo unspecified)	570 s
O=C(NCc1cc(F)ccc1F)C1CCN(C(=O)c2ncn3c2COC(c2ccc(F)cc2)C3)CC1 (stereo unspecified)	802 s
CCN(CC)C(=O)c1ccc2c(c1)N(CC(=O)N1CCN(c3ncccn3)CC1)C(=O)CO2	666 s
Cc1cc(C)n(-c2ccnc(N3CCC(C(=O)NCC(C)C)CC3)n2)n1	768 s
Cc1ccc(NC(=O)C2CCCN(c3ncnc4c3nc3n4CCCCC3)C2)nc1 (stereo unspecified)	699 s
O=S(=O)(Cc1ccccc1)N1CCC(c2noc(-c3cccnc3)n2)C1 (stereo unspecified)	822 s
CN1CCN(CCNC(=O)C2CCc3sc(C(=O)N4CCCC4)cc3C2)CC1 (stereo unspecified)	569 s
COc1cc(C(=O)N2CCN(c3cc(=O)n(C)c(=O)n3C)CC2)cc(OC)c1OC	630 s
O=C(CCn1cnc2ccccc2c1=O)N1CCN(CCn2cccn2)CC1	539 s
O=C(Cc1csc2nc(-c3ccccc3)cn12)Nc1cccc(F)c1	805 s
O=C(Nc1ccccc1)N(Cc1nnc2n1CCCCC2)c1ccc2c(c1)OCO2	703 s
O=C(Nc1ccc(F)cc1Br)c1cnc(-c2ccccc2)nc1-c1ccncc1	935 s
O=C(NCCc1csc(C2CCN(C(=O)C3CCC3)CC2)n1)C1CCC1	703 s

Second part, the compound after the results:

RP-LC retention time	Structure (SMILES)
593 s	Cc1ccnc(NC(=O)c2ccc(Cn3cncn3)cc2)c1
760 s	Cc1cc2c(c(=O)n(-c3ccccc3)c(=O)n2CC(=O)Nc2ccc3c(c2)OCO3)n1C
758 s	CCOc1ccc(CC(=O)NC(CC(C)C)C(=O)Nc2nc3ccccc3[nH]2)cc1OCC (stereo unspecified)
585 s	CCNc1cc(N2CCC(CCC(=O)NCc3ccccc3Cl)CC2)ncn1
1040 s	Cc1cc(NC(=O)C(=O)c2ccc[nH]2)ccc1Br
910 s	Cc1ccc(-n2c(=O)c3c(cc(C)n3C)n(CC(=O)Nc3ccc(Cl)cc3)c2=O)cc1
791 s	Oc1ccc(Cl)cc1C1CC(c2ccc(Cl)cc2)=NC2(CCN(Cc3ccccc3)CC2)N1 (stereo unspecified)
726 s	COCCN1C(=O)CCc2cc(NS(=O)(=O)c3ccccc3F)ccc21
831 s	Cc1cccc(CNc2nnc(-c3nnc(C)o3)c3ccccc23)c1
881 s	O=C(Cc1csc2nc(-c3ccccc3)cn12)Nc1ccc(Cl)cc1F
815 s	CCOc1ccc(NC(=O)Cc2csc3nc(-c4ccccc4)cn23)cc1
843 s	CCc1ccc(NC(=O)Cn2cnc3onc(C)c3c2=O)cc1
811 s	COc1ccc(CNC(=O)c2cn3cc(Cl)ccc3n2)cc1
935 s	Cn1nc(C(=O)NC2CCCN(c3cc(-c4ccc(Cl)cc4)[nH]n3)C2)c2ccccc21 (stereo unspecified)
1060 s	CCn1ccc2oc(C)c(C(=O)NCc3cccc(Br)c3)c2c1=O
602 s	CC(C)C(=O)Nc1c(-c2ccc(F)cc2)nc2ccccn12
1080 s	CC(CCc1ccco1)NC(=O)C1CCN(c2nc(-c3ccc(Cl)cc3)no2)CC1 (stereo unspecified)
700 s	COc1cc(C)c(Cl)cc1S(=O)(=O)Nc1ccc(-c2cn3ccc(C)nc3n2)cc1
693 s	CCC(CO)NCc1ccc(-c2cc(Cl)ccc2Cl)o1 (stereo unspecified)
768 s	Cc1ccc(CNS(=O)(=O)c2cc(-c3[nH]ncc3C(=O)N3CCCC3)oc2C)cc1C
705 s	Cc1cc(NC(=O)NCCc2c(C)nn(C)c2C)ccc1Br
618 s	CCOc1ccc(CNCCSc2nnnn2C)cc1Cl
1080 s	Cc1ccc(CNC(=O)c2nc(-c3oc4c(C)cccc4c3C)no2)o1
931 s	Cc1ccc(-n2c(=O)c3c(cc(C)n3C)n(CC(=O)Nc3ccc(C)c(F)c3)c2=O)cc1
752 s	COC(=O)c1cnc2nc(C)ccc2c1Nc1ccc(C)cc1Cl
791 s	Cc1ccc(Nc2nc(Cl)nc3ncn(C)c23)c(C)c1
1070 s	Fc1ccc(-c2nnc(Cc3nc(-c4cccc(Cl)c4)no3)o2)cc1
882 s	CCS(=O)(=O)N1CC(=O)N(c2ccc(Cl)cc2C)C(C)(C(=O)NCc2ccc(F)cc2)C1 (stereo unspecified)
675 s	CN(C)C(=O)c1ccc2c(c1)nnn2CCNC(=O)Nc1ccccc1Br
588 s	O=S(=O)(Cc1ccccc1Cl)NCC1CCN(Cc2ccsc2)CC1
